How the values were obtained:
Assay in all cases: relative viability (nuclei count vs DMSO), 5 days (fraction); higher = more cells survive
Pazopanib + Tozasertib = compound: Cc1ccc(Nc2nccc(N(C)c3ccc4c(C)n(C)nc4c3)n2)cc1S(N)(=O)=O [Pazopanib] + Cc1cc(Nc2cc(N3CCN(C)CC3)nc(Sc3ccc(NC(=O)C4CC4)cc3)n2)n[nH]1 [Tozasertib] (partner 0.1 µM)
How it was run: (§1)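 One day after seeding in 1536-well plates, lung cancer cell lines were dosed by pin tool. Dosing was either single-drug or a fixed anchor-drug dose plus five library-drug doses (not always all listed) in √10 steps. After 5 days, nuclei were stained in one fix-and-stain step and counted on 4× images, and relative viability is the nuclei count of treated wells over that of vehicle wells, given as the median of duplicate plates.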

Ponatinib + Lapatinib = compound: Cc1ccc(C(=O)Nc2ccc(CN3CCN(C)CC3)c(C(F)(F)F)c2)cc1C#Cc1cnc2cccnn12 [Ponatinib] + CS(=O)(=O)CCNCc1ccc(-c2ccc3ncnc(Nc4ccc(OCc5cccc(F)c5)c(Cl)c4)c3c2)o1 [Lapatinib] (partner 2 µM)
How it was run: as §1

Pazopanib + Luminespib = compound: Cc1ccc(Nc2nccc(N(C)c3ccc4c(C)n(C)nc4c3)n2)cc1S(N)(=O)=O [Pazopanib] + CCNC(=O)c1noc(-c2cc(C(C)C)c(O)cc2O)c1-c1ccc(CN2CCOCC2)cc1 [Luminespib] (partner 0.01 µM)
How it was run: as §1

Ponatinib + Palbociclib = compound: Cc1ccc(C(=O)Nc2ccc(CN3CCN(C)CC3)c(C(F)(F)F)c2)cc1C#Cc1cnc2cccnn12 [Ponatinib] + CC(=O)c1c(C)c2cnc(Nc3ccc(N4CCNCC4)cn3)nc2n(C2CCCC2)c1=O [Palbociclib] (partner 0.5 µM)
How it was run: as §1

Cell Line: UMC-11
- relative viability (Pazopanib + Tozasertib; first compound 0.01 µM): 0.196
- relative viability (Pazopanib + Tozasertib; first compound 0.03162 µM): 0.19
- relative viability (Pazopanib + Tozasertib; first compound 0.1 µM): 0.208
- relative viability (Pazopanib + Tozasertib; first compound 0.3162 µM): 0.206
- relative viability (Pazopanib + Tozasertib; first compound 1 µM): 0.211
- relative viability (Ponatinib + Lapatinib; first compound 0.002 µM): 1
- relative viability (Ponatinib + Lapatinib; first compound 0.006325 µM): 1.05
- relative viability (Ponatinib + Lapatinib; first compound 0.06325 µM): 1.17
- relative viability (Ponatinib + Lapatinib; first compound 0.2 µM): 0.988
- relative viability (Pazopanib + Luminespib; first compound 0.01 µM): 1.08
- relative viability (Pazopanib + Luminespib; first compound 0.03162 µM): 0.994
- relative viability (Pazopanib + Luminespib; first compound 0.1 µM): 1.06
- relative viability (Pazopanib + Luminespib; first compound 0.3162 µM): 0.98
- relative viability (Pazopanib + Luminespib; first compound 1 µM): 1.09
- relative viability (Ponatinib + Palbociclib; first compound 0.006325 µM): 0.312
- relative viability (Ponatinib + Palbociclib; first compound 0.06325 µM): 0.287
- relative viability (Ponatinib + Palbociclib; first compound 0.2 µM): 0.346

— the supplement of paper PMC10307832
